Where two headings read alike, the source gives them in different places. [PEt] = P-ethoxy (ethyl phosphotriester) internucleoside linkage
Key:
[1] = Plasma pharmacokinetics of Grb2 antisense oligo in patients; conditions: plasma
Method: Pharmacokinetic (PK) analysis was performed on plasma samples collected from refractory/relapsed patients diagnosed with AML receiving BP1001 (60 mg/m^2)+LDAC or receiving BP1001 (90 mg/m^2)+LDAC.
Blood samples for measurement of Grb2 antisense oligo concentrations were collected from patients in cohorts 7 and 8, at predose, 1, 2, 4, 6, 8, 24, 72 h post start-of-infusion (SOI). Urine samples for measurement of BP1001 concentrations were also collected from patients in cohorts 7 and 8, at start of dose-4 h, 4-8 h postdose, and 8-24 h postdose. PK blood samples were processed to plasma and analyzed using a validated method (Charles River Laboratories, Montreal, Canada) with a lower limit of quantitation (LLOQ; 0.5 ng/mL). Urine samples were analyzed using a validated method (Charles River Laboratories, Montreal, Canada) with a LLOQ of 1.00 ng/mL.
PK parameters were estimated using Phoenix pharmacokinetic software (Certara). A non-compartmental approach consistent with the IV infusion route of administration was used for parameter estimation, using an estimated infusion time of 2.5 h. All parameters were generated from Grb2 antisense oligo individual concentrations in plasma from Day 1 of Cycle 1, whenever practical. […] Parameters were estimated using nominal sampling times relative to the start of infusion. The area under the concentration vs. time curve (AUC) was calculated using the linear trapezoidal method with linear interpolation. The slope of the terminal elimination phase was determined using log linear regression on the unweighted concentration data.

[2] = system: BV173 cells; assay: Cell cycle analysis (7-AAD flow cytometry); assay type: cell-based, human
Method: Cells were then fixed and permeabilized for 1 h at 4° C. with 1×Fixation/Permeabilization buffer (Ebioscience, San Diego, Calif., USA). After permeabilization, cells were washed and incubated with 7-aminoactinomycin D (7-AAD, Biolegend, San Diego, Calif., USA) in the dark at 4° C. for about 30 min. Flow cytometric data acquisition was acquired using BD FACSDiva™ software (BD Biosciences, San Jose, Calif., USA). The flow cytometer was set to collect 20,000 events. Relative percentages in the different cell cycle phases (sub-G1, G1, S, G2/M) were reported.
[…] Three days later, cells were harvested and processed for flow cytometry.

[3] = system: K562 cells
Method: (§1) BV173 and K562 cells were seeded at 5 and 15×10^3 cells/well, respectively, in 96-well plates in 0.1 mL of medium. Cells were incubated with BP1001 and/or tyrosine kinase inhibitors for 4 days. The viability of untreated and treated leukemia cells was measured by the CellTiter-Glo® Luminescent Cell Viability Assay (Promega, Madison, Wis., USA). The CellTiter-Glo® Luminescent Cell Viability Assay determines the number of viable cells by quantitating the presence of ATP, an indicator of metabolically active cells.

[4] = system: BV173 cells
Method: as §1

[5] = tyrosine kinase inhibitor alone or after BP1001 pretreatment (FIG. 9A)
[6] = tyrosine kinase inhibitor alone or followed by BP1001 (FIG. 9B)
[7] = BP1001 (120 μg/mL in the combination) 1 h before 1 nM dasatinib, four days
[8] = BP1001 (120 μg/mL in the combination) 1 day before dasatinib
[9] = dasatinib 1 day, then BP1001 (120 μg/mL in the combination), read 3 days later

5′-ATATTTGGCGATGGCTTC-3′ (DNA, all [PEt], methylation of C not given here) [Grb2 antisense oligo]
Tmax ([1]; 60 mg/m^2 cohort): 1 h
Tmax ([1]; 90 mg/m^2 cohort): 1 h
decrease of Vz for the dose increase from 60 to 90 mg/m^2 [1]: approximately 1.5 fold
increase of CL for the dose increase from 60 to 90 mg/m^2 [1]: approximately 1.5 fold

COc1cc(Nc2c(C#N)cnc3cc(OCCCN4CCN(C)CC4)c(OC)cc23)c(Cl)cc1Cl [bosutinib]
percentage of cells in sub-G1 phase [2, 5]: 34.3%
percentage of cells in sub-G1 phase [2, 6]: 66.1%

Cc1nc(Nc2ncc(C(=O)Nc3c(C)cccc3Cl)s2)cc(N2CCN(CCO)CC2)n1 [dasatinib]
decrease of viability [3, 7]: 25%
decrease of viability [3, 8]: 25%
decrease of viability [3, 9]: 12%
percentage of cells in sub-G1 phase ([2]; BP1001 1 day before dasatinib, harvested three days later (FIGS. 8A-D)): 10.6%
percentage of cells in sub-G1 phase [2, 5]: 30.7%
percentage of cells in sub-G1 phase [2, 6]: 64.1%
decrease of viability [4, 7]: 40%
decrease of viability [4, 8]: 10%
decrease of viability [4, 9]: 6%

Cc1cn(-c2cc(NC(=O)c3ccc(C)c(Nc4nccc(-c5cccnc5)n4)c3)cc(C(F)(F)F)c2)cn1 [nilotinib]
percentage of cells in sub-G1 phase [2, 5]: 26.4%
percentage of cells in sub-G1 phase [2, 6]: 65.0%

Cc1ccc(C(=O)Nc2ccc(CN3CCN(C)CC3)c(C(F)(F)F)c2)cc1C#Cc1cnc2cccnn12 [ponatinib]
percentage of cells in sub-G1 phase [2, 5]: 34.0%
percentage of cells in sub-G1 phase [2, 6]: 71.1%

— patent US20200032271A1, “COMBINATION THERAPY WITH LIPOSOMAL ANTISENSE OLIGONUCLEOTIDES” (Bio-Path Holdings, Inc., priority 2016, published 2020)
